Reference: PubChem BioAssay AID2060493 (Molecular Pharmacology Branch, DTP, NCI, 2025)

System: 616215-338-R-J1-PDC tumor spheroids, viability
Experiment: Anticancer human tumor 616215-338-R-J1-PDC patient-derived colon adenocarcinoma cell line growth inhibition [GQUAD]
Conditions: spheroids with HUVEC and MSC; for IC50: curve of first compound; for viability, T/C: stronger effect = lower value
Method in brief: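 Tumor cells were grown as complex spheroids with HUVEC endothelial cells and mesenchymal stem cells as stroma. G-quadruplex stabilizers were combined with targeted agents over half-log dilutions from near the clinical Cmax, or from 10 microM.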

[1] = second compound 0.0316 µM, first compound 0.0316 µM
[2] = second compound 0.0316 µM, first compound 0.1 µM
[3] = second compound 0.0316 µM, first compound 0.316 µM
[4] = second compound 0.0316 µM, first compound 1 µM
[5] = second compound 0.0316 µM, first compound 3.16 µM
[6] = second compound 0.0316 µM, first compound 10 µM
[7] = second compound 0.1 µM, first compound 0.0316 µM
[8] = second compound 0.1 µM, first compound 0.1 µM
[9] = second compound 0.1 µM, first compound 0.316 µM
[10] = second compound 0.1 µM, first compound 1 µM
[11] = second compound 0.1 µM, first compound 3.16 µM
[12] = second compound 0.1 µM, first compound 10 µM
[13] = second compound 0.316 µM, first compound 0.0316 µM
[14] = second compound 0.316 µM, first compound 0.1 µM
[15] = second compound 0.316 µM, first compound 0.316 µM
[16] = second compound 0.316 µM, first compound 1 µM
[17] = second compound 0.316 µM, first compound 3.16 µM
[18] = second compound 0.316 µM, first compound 10 µM
[19] = second compound 1 µM, first compound 0.0316 µM
[20] = second compound 1 µM, first compound 0.1 µM
[21] = second compound 1 µM, first compound 0.316 µM
[22] = second compound 1 µM, first compound 1 µM
[23] = second compound 1 µM, first compound 3.16 µM
[24] = second compound 1 µM, first compound 10 µM
[25] = second compound 3.16 µM, first compound 0.0316 µM
[26] = second compound 3.16 µM, first compound 0.1 µM
[27] = second compound 3.16 µM, first compound 0.316 µM
[28] = second compound 3.16 µM, first compound 1 µM
[29] = second compound 3.16 µM, first compound 3.16 µM
[30] = second compound 3.16 µM, first compound 10 µM
[31] = second compound 10 µM, first compound 0.0316 µM
[32] = second compound 10 µM, first compound 0.1 µM
[33] = second compound 10 µM, first compound 0.316 µM
[34] = second compound 10 µM, first compound 1 µM
[35] = second compound 10 µM, first compound 3.16 µM
[36] = second compound 10 µM, first compound 10 µM
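Also: spheroids exposed to agents for 7 days before readout.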
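For viability, T/C in this document: percent viability relative to DMSO vehicle control wells taken as 100%.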

Q: `CC1COCCN1c1cc(C2(S(C)(=N)=O)CC2)nc(-c2ccnc3[nH]ccc23)n1` (stereo unspecified) + CN(C)c1ccc(Nc2c3ccc(NC(=O)CCN4CCCC4)cc3nc3cc(NC(=O)CCN4CCCC4)ccc23)cc1 was tested. Which IC50 (second compound 0.0316 µM) did it give?
A: 2.8 µM

Q: What about the IC50 (second compound 0.1 µM) of the same compound?
A: 4.91 µM

Q: What about the IC50 (second compound 0.316 µM) of the same compound?
A: 5.62 µM

Q: What about the IC50 (second compound 1 µM) of the same compound?
A: 5.2 µM

Q: And the IC50 (second compound 3.16 µM)?
A: 5.18 µM

Q: And the IC50 (second compound 10 µM)?
A: 3.47 µM

Q: What about the viability, T/C [1] of the same compound?
A: 116%

Q: And the viability, T/C [2]?
A: 102%

Q: And the viability, T/C [3]?
A: 103%

Q: What about the viability, T/C [4] of the same compound?
A: 97.6%

Q: And the viability, T/C [5]?
A: 44.4%

Q: What about the viability, T/C [6] of the same compound?
A: 31.5%

Q: And the viability, T/C [7]?
A: 105%

Q: What about the viability, T/C [8] of the same compound?
A: 97%

Q: What about the viability, T/C [9] of the same compound?
A: 104%

Q: What about the viability, T/C [10] of the same compound?
A: 98%

Q: And the viability, T/C [11]?
A: 63.5%

Q: What about the viability, T/C [12] of the same compound?
A: 28.2%

Q: What about the viability, T/C [13] of the same compound?
A: 98.1%

Q: What about the viability, T/C [14] of the same compound?
A: 106%

Q: And the viability, T/C [15]?
A: 102%

Q: What about the viability, T/C [16] of the same compound?
A: 96.6%

Q: And the viability, T/C [17]?
A: 69.9%

Q: What about the viability, T/C [18] of the same compound?
A: 30.1%

Q: What about the viability, T/C [19] of the same compound?
A: 93.2%

Q: What about the viability, T/C [20] of the same compound?
A: 97.3%

Q: What about the viability, T/C [21] of the same compound?
A: 99.3%

Q: What about the viability, T/C [22] of the same compound?
A: 95.9%

Q: What about the viability, T/C [23] of the same compound?
A: 69.2%

Q: What about the viability, T/C [24] of the same compound?
A: 24.8%

Q: What about the viability, T/C [25] of the same compound?
A: 99%

Q: And the viability, T/C [26]?
A: 102%

Q: What about the viability, T/C [27] of the same compound?
A: 94.3%

Q: What about the viability, T/C [28] of the same compound?
A: 97.7%

Q: What about the viability, T/C [29] of the same compound?
A: 68.1%

Q: And the viability, T/C [30]?
A: 25.9%

Q: What about the viability, T/C [31] of the same compound?
A: 94%

Q: And the viability, T/C [32]?
A: 94%

Q: And the viability, T/C [33]?
A: 89.2%

Q: And the viability, T/C [34]?
A: 86.1%

Q: What about the viability, T/C [35] of the same compound?
A: 51.7%

Q: And the viability, T/C [36]?
A: 29.6%

Q: `C#Cc1c(F)ccc2cc(O)cc(-c3ncc4c(N5CC6CCC(C5)N6)nc(OCC56CCCN5CC(F)C6)nc4c3F)c12` (stereo unspecified) + Cc1[nH]c2ccc(F)cc2c1-c1nc2c3cccnc3c3ncccc3c2[nH]1 was tested. Which IC50 (second compound 0.0316 µM) did it give?
A: > 10 µM

Q: What about the IC50 (second compound 0.1 µM) of the same compound?
A: > 10 µM

Q: What about the IC50 (second compound 0.316 µM) of the same compound?
A: > 10 µM

Q: And the IC50 (second compound 1 µM)?
A: > 10 µM

Q: And the IC50 (second compound 3.16 µM)?
A: 8.11 µM

Q: What about the IC50 (second compound 10 µM) of the same compound?
A: 6.03 µM

Q: What about the viability, T/C [1] of the same compound?
A: 104%

Q: What about the viability, T/C [2] of the same compound?
A: 109%

Q: What about the viability, T/C [3] of the same compound?
A: 103%

Q: And the viability, T/C [4]?
A: 111%

Q: And the viability, T/C [5]?
A: 97.4%

Q: And the viability, T/C [6]?
A: 73.3%

Q: What about the viability, T/C [7] of the same compound?
A: 107%

Q: And the viability, T/C [8]?
A: 111%

Q: And the viability, T/C [9]?
A: 126%

Q: What about the viability, T/C [10] of the same compound?
A: 113%

Q: What about the viability, T/C [11] of the same compound?
A: 96%

Q: What about the viability, T/C [12] of the same compound?
A: 78.4%

Q: And the viability, T/C [13]?
A: 113%

Q: And the viability, T/C [14]?
A: 96.9%

Q: What about the viability, T/C [15] of the same compound?
A: 124%

Q: And the viability, T/C [16]?
A: 116%

Q: And the viability, T/C [17]?
A: 106%

Q: What about the viability, T/C [18] of the same compound?
A: 56.9%

Q: And the viability, T/C [19]?
A: 105%

Q: And the viability, T/C [20]?
A: 99.9%

Q: What about the viability, T/C [21] of the same compound?
A: 97.9%

Q: What about the viability, T/C [22] of the same compound?
A: 108%

Q: And the viability, T/C [23]?
A: 83.8%

Q: And the viability, T/C [24]?
A: 64.4%

Q: What about the viability, T/C [25] of the same compound?
A: 102%

Q: What about the viability, T/C [26] of the same compound?
A: 106%

Q: What about the viability, T/C [27] of the same compound?
A: 116%

Q: And the viability, T/C [28]?
A: 94.1%

Q: What about the viability, T/C [29] of the same compound?
A: 82.6%

Q: And the viability, T/C [30]?
A: 42.9%

Q: What about the viability, T/C [31] of the same compound?
A: 97.2%

Q: And the viability, T/C [32]?
A: 101%

Q: And the viability, T/C [33]?
A: 110%

Q: And the viability, T/C [34]?
A: 82.1%

Q: What about the viability, T/C [35] of the same compound?
A: 60.8%

Q: And the viability, T/C [36]?
A: 42.4%

Q: What does the source list for `COc1cccc2c1C(=O)c1c(O)c3c(c(O)c1C2=O)CC(O)(C(=O)CO)CC3OC1CC(N)C(O)C(C)O1` (stereo unspecified) + CN(C)c1ccc(Nc2c3ccc(NC(=O)CCN4CCCC4)cc3nc3cc(NC(=O)CCN4CCCC4)ccc23)cc1?
A: IC50 (second compound 0.0316 µM): 0.467 µM; IC50 (second compound 0.1 µM): 0.511 µM; IC50 (second compound 0.316 µM): 0.483 µM; IC50 (second compound 1 µM): 0.469 µM; IC50 (second compound 3.16 µM): 0.511 µM; IC50 (second compound 10 µM): 0.348 µM; viability, T/C [1]: 101%; viability, T/C [2]: 88%; viability, T/C [3]: 51.7%; viability, T/C [4]: 36.2%; viability, T/C [5]: 17.7%; viability, T/C [6]: 1.14%; viability, T/C [7]: 101%; viability, T/C [8]: 92.3%; viability, T/C [9]: 47.3%; viability, T/C [10]: 41.3%; viability, T/C [11]: 20.1%; viability, T/C [12]: 0.23%; viability, T/C [13]: 105%; viability, T/C [14]: 90.8%; viability, T/C [15]: 49.3%; viability, T/C [16]: 38%; viability, T/C [17]: 20.1%; viability, T/C [18]: 0.36%; viability, T/C [19]: 102%; viability, T/C [20]: 77.8%; viability, T/C [21]: 53.3%; viability, T/C [22]: 36%; viability, T/C [23]: 19.9%; viability, T/C [24]: 1.11%; viability, T/C [25]: 97.6%; viability, T/C [26]: 87.2%; viability, T/C [27]: 46.3%; viability, T/C [28]: 45.4%; viability, T/C [29]: 19.6%; viability, T/C [30]: 3.39%; viability, T/C [31]: 101%; viability, T/C [32]: 78%; viability, T/C [33]: 48.9%; viability, T/C [34]: 30.5%; viability, T/C [35]: 20.5%; viability, T/C [36]: 2.68%
